According to ChEMBL document CHEMBL4414590, “Discovery of SIAIS178 as an Effective BCR-ABL Degrader by Recruiting Von Hippel-Lindau (VHL) E3 Ubiquitin Ligase” (J Med Chem, 2019):
pIC50: −log10 of the molar value. Activity calls are given as the source filed them. The calls are words filed in the database; no cut-off is given here.

Legend:
K562 [1] = assay: Growth inhibition of human K562 cells incubated for 2 days by CCK8 assay; format: functional, cell-based; details: K562, 48 h
[2] = target: T1, von Hippel-Lindau disease tumor suppressor/Tyrosine-protein kinase ABL1/Breakpoint cluster region protein (Homo sapiens, UniProt P00519+P11274+P40337); assay: Protac activity against VHL/BCR-ABL in human K562 cells assessed as induction of BCR-ABL degradation by Western blot analysis; format: cell-based
[3] = target: T2, Bcr/Abl fusion protein (Homo sapiens) (UniProt P00519+P11274); assay: Inhibition of BCR-ABL phosphorylation in human K562 cells at 1 to 100 nM by Western blot analysis; format: cell-based
T2 sequence (P00519 whole entry, looked up, the tested form may be a part): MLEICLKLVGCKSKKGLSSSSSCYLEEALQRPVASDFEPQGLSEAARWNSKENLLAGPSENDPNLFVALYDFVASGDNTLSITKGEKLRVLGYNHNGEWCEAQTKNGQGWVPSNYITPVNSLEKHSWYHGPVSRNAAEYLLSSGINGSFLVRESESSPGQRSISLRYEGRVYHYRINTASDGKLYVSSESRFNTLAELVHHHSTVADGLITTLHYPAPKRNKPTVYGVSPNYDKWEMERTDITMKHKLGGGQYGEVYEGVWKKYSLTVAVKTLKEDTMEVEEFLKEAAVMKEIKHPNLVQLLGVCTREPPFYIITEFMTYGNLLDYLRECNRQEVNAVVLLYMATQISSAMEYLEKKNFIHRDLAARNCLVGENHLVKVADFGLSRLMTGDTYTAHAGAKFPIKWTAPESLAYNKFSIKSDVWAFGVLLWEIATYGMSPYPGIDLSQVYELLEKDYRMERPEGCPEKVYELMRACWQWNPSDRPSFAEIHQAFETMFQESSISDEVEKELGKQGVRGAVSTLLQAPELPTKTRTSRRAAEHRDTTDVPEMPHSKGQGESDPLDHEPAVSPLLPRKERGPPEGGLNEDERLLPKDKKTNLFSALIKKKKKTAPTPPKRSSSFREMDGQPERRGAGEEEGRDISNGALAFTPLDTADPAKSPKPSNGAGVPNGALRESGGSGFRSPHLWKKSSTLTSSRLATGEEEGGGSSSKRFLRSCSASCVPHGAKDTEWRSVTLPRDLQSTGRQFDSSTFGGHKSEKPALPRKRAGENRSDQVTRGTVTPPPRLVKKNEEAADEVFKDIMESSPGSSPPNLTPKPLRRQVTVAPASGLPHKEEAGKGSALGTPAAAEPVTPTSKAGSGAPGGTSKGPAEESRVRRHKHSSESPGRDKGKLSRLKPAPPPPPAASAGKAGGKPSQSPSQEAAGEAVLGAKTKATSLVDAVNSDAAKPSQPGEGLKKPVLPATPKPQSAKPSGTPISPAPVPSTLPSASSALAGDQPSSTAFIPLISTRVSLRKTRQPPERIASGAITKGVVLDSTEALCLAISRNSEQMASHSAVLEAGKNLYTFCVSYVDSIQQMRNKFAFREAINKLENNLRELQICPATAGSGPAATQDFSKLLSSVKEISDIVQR
T2 sequence (P11274 whole entry, looked up, the tested form may be a part): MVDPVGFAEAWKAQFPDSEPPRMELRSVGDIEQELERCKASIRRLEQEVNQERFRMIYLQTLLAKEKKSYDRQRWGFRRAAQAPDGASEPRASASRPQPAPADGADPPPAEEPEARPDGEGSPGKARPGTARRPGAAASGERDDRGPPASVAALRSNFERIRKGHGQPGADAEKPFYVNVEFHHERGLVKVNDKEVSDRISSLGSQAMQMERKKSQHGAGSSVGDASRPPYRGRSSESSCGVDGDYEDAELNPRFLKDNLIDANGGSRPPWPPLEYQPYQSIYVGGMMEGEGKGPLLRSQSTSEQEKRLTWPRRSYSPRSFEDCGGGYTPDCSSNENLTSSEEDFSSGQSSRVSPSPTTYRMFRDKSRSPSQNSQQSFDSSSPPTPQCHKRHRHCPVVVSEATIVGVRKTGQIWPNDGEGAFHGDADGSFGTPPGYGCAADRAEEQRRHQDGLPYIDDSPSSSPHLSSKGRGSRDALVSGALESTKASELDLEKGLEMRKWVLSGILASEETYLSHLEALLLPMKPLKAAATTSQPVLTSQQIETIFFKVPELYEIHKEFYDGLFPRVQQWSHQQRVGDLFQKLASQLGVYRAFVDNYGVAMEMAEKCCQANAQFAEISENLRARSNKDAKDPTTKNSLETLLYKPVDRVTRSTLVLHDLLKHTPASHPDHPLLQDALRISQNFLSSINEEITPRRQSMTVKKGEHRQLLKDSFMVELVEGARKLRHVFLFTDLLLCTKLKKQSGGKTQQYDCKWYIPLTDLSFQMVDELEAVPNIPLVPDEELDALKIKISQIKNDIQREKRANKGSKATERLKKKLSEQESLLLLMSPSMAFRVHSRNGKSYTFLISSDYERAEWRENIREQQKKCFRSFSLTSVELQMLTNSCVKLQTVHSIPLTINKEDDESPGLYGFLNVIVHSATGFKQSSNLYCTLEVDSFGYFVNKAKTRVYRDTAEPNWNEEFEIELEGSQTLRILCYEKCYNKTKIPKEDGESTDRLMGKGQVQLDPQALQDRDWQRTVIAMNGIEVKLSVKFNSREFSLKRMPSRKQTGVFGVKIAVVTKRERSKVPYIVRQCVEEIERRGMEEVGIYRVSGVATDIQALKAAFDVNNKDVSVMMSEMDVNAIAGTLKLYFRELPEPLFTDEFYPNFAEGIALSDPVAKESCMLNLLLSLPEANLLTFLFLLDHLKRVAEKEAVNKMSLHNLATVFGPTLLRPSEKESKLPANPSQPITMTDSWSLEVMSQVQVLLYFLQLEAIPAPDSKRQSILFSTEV

[4] = target: T2, Bcr/Abl fusion protein (Homo sapiens); assay: Inhibition of BCR-ABL in human K562 cells assessed as reduction in STAT5 phosphorylation at 1 to 100 nM by Western blot analysis; format: cell-based
[5] = target: T2, Bcr/Abl fusion protein (Homo sapiens); assay: Inhibition of BCR-ABL phosphorylation in human KU812 cells at 1 to 30 nM by Western blot analysis; format: cell-based
KU812 cell line = assay: Growth inhibition of human KU812 cells incubated for 2 days by CCK8 assay; format: functional, cell-based
SUP-B15 = assay: Growth inhibition of human SUP-B15 cells incubated for 2 days by CCK8 assay; format: functional, cell-based
U-937 = assay: Growth inhibition of human U937 cells incubated for 2 days by CCK8 assay; format: functional, cell-based
HEK293 = assay: Growth inhibition of human HEK293 cells incubated for 2 days by CCK8 assay; format: cell-based; details: hek293, 48 h
[6] = target: T1, von Hippel-Lindau disease tumor suppressor/Tyrosine-protein kinase ABL1/Breakpoint cluster region protein; assay: Protac activity against VHL/BCR-ABL in human K562 cells assessed as induction of BCR-ABL degradation pre-treated with 4 uM VHL1 for 2 hrs followed by compound addition at 100 nM and further incubated for 8 hrs by Western blot analysis; format: cell-based
[7] = target: T1, von Hippel-Lindau disease tumor suppressor/Tyrosine-protein kinase ABL1/Breakpoint cluster region protein; assay: Protac activity against VHL/BCR-ABL in human K562 cells assessed as induction of BCR-ABL degradation pre-treated with 100 nM dasatinib for 2 hrs followed by compound addition at 100 nM and further incubated for 8 hrs by Western blot analysis; format: cell-based
[8] = target: T1, von Hippel-Lindau disease tumor suppressor/Tyrosine-protein kinase ABL1/Breakpoint cluster region protein; assay: Protac activity against VHL/BCR-ABL in human K562 cells assessed as induction of BCR-ABL degradation pre-treated with 2.5 uM proteasome inhibitor MG132 for 2 hrs followed by compound addition at 100 nM and further incubated for 8 hrs by Western blot analysis; format: cell-based
[9] = target: T1, von Hippel-Lindau disease tumor suppressor/Tyrosine-protein kinase ABL1/Breakpoint cluster region protein; assay: Protac activity against VHL/BCR-ABL in human K562 cell lysates assessed as induction of pull down of endogenous ABL at 10 to 100 nM in presence of excess immobilized GST-VBC bait by GST-pull down assay; format: subcellular; details: Lysate
[10] = target: T1, von Hippel-Lindau disease tumor suppressor/Tyrosine-protein kinase ABL1/Breakpoint cluster region protein; assay: Induction of ternary complex formation between VHL and BCR-ABL (unknown origin) expressed in HEK293 cells expressing N-terminal BCR-ABL LgBit fusion protein and N-terminal SmBit-VHL fusion protein at 1 uM incubated for 1 hr by NanoBit technology based luciferase complementation assay; format: cell-based
[11] = target: T1, von Hippel-Lindau disease tumor suppressor/Tyrosine-protein kinase ABL1/Breakpoint cluster region protein; assay: Induction of ternary complex formation between VHL and BCR-ABL (unknown origin) expressed in HEK293 cells expressing N-terminal BCR-ABL LgBit fusion protein and N-terminal SmBit-VHL fusion protein pre-treated with 10 uM dasatinib for 2 hrs followed by compound addition at 1 uM and further incubated for 1 hr by NanoBit technology based luciferase complementation assay; format: cell-based
[12] = target: Tyrosine-protein kinase ABL1 (Homo sapiens) (UniProt P00519); assay: Binding affinity to human phosphorylated ABL1 (S229 to K512 residues) expressed in mammalian expression system assessed as residual binding level at 10 uM by Kinomescan method relative to control
Tyrosine-protein kinase ABL1 (Homo sapiens), sequence (P00519 whole entry, the tested form may be a part): as the sequence (P00519 whole entry, looked up, the tested form may be a part) above

[13] = target: Tyrosine-protein kinase ABL1 (Homo sapiens) (UniProt P00519); assay: Binding affinity to human non-phosphorylated ABL1 (S229 to K512 residues) expressed in mammalian expression system assessed as residual binding level at 10 uM by Kinomescan method relative to control
K562 [14] = assay: Effect on LYN protein level in human K562 cells at 100 nM incubated for 16 hrs by multiplexed tandem mass spectrometry; format: ADME, cell-based; details: k562, 16 h, 0.1 µM
[15] = target: von Hippel-Lindau disease tumor suppressor/Tyrosine-protein kinase ABL1 (Homo sapiens) (UniProt P00519+P40337); assay: Protac activity against VHL/c-ABL in human K562 cells assessed as reduction in c-ABL protein levels at 1 to 100 nM incubated for 16 hrs by Western blot analysis; format: cell-based
[16] = target: von Hippel-Lindau disease tumor suppressor/Ephrin type-B receptor 4 (Homo sapiens) (UniProt P54760+P40337); assay: Protac activity against VHL/EPHB4 in human K562 cells assessed as reduction in EPHB4 protein levels at 1 to 100 nM incubated for 16 hrs by Western blot analysis; format: cell-based
von Hippel-Lindau disease tumor suppressor/Ephrin type-B receptor 4 (Homo sapiens), sequence (P40337 whole entry, looked up): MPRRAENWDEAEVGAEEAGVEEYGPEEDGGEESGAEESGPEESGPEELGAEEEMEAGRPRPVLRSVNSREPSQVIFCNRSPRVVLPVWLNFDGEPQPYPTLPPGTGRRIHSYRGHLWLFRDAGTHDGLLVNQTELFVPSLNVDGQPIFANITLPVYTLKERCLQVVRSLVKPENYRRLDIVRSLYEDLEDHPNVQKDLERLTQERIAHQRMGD
von Hippel-Lindau disease tumor suppressor/Ephrin type-B receptor 4 (Homo sapiens), sequence (P54760 whole entry, looked up): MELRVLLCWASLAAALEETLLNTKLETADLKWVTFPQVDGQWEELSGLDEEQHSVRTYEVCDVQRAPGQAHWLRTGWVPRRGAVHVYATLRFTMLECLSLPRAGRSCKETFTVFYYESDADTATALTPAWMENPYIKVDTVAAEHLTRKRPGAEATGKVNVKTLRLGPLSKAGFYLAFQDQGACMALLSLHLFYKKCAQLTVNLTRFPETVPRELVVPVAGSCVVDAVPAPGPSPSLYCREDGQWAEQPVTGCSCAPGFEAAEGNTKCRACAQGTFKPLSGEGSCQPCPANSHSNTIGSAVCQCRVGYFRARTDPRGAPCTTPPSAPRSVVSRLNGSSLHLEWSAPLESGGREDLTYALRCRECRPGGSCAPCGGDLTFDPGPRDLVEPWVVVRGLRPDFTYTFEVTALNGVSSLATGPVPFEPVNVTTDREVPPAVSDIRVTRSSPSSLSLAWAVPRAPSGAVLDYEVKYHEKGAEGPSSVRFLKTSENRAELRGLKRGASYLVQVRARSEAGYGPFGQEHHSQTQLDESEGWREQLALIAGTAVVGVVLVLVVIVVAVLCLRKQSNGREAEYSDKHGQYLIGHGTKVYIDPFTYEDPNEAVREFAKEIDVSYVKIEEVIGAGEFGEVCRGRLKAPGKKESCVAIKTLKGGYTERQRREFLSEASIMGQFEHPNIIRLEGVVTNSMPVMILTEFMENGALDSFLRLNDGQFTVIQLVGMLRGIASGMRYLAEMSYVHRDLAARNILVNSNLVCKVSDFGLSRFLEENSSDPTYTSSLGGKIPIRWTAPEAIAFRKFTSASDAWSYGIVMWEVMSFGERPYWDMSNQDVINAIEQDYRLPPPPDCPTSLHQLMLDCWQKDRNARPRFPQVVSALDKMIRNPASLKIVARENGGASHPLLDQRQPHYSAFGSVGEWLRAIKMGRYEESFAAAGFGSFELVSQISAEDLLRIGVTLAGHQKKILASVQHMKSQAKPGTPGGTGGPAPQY

[17] = Toxicity in NOD/SCID mouse xenografted with luciferse expressing human K562 cells assessed as effect on body weight at 5 to 15 mg/kg, ip QD for 12 days; format: organism-based; details: in vivo, 288 h
[18] = test system: von Hippel-Lindau disease tumor suppressor/Tyrosine-protein kinase ABL1/Breakpoint cluster region protein (Homo sapiens), P00519+P11274+P40337 [V299L]; assay: Protac activity against VHL/BCR-ABL V299L mutant (unknown origin) expressed in human U937 cells assessed as induction of BCR-ABL degradation incubated for 16 hrs by Western blot analysis; format: cell-based
[19] = test system: von Hippel-Lindau disease tumor suppressor/Tyrosine-protein kinase ABL1/Breakpoint cluster region protein (Homo sapiens), P00519+P11274+P40337 [F317V]; assay: Protac activity against VHL/BCR-ABL F317V mutant (unknown origin) expressed in human U937 cells assessed as induction of BCR-ABL degradation incubated for 16 hrs by Western blot analysis; format: cell-based
[20] = test system: von Hippel-Lindau disease tumor suppressor/Tyrosine-protein kinase ABL1/Breakpoint cluster region protein (Homo sapiens), P00519+P11274+P40337 [T315A]; assay: Protac activity against VHL/BCR-ABL T315A mutant (unknown origin) expressed in human U937 cells assessed as induction of BCR-ABL degradation incubated for 16 hrs by Western blot analysis; format: cell-based
[21] = test system: von Hippel-Lindau disease tumor suppressor/Tyrosine-protein kinase ABL1/Breakpoint cluster region protein (Homo sapiens), P00519+P11274+P40337 [T315I]; assay: Protac activity against VHL/BCR-ABL T315I mutant (unknown origin) expressed in human U937 cells assessed as induction of BCR-ABL degradation incubated for 16 hrs by Western blot analysis; format: cell-based
K562 [22] = assay: Growth inhibition of human K562 cells assessed as reduction in cell density at 20 times IC50 incubated for 12 hrs followed by drug wash-out and incubation in drug-free medium up to 144 hrs by CCK8 assay; format: functional, cell-based
K562 [23] = assay: Induction of cell death in human K562 cells assessed as reduction in cell viability at 20 times IC50 incubated for 12 hrs followed by drug wash-out and incubation in drug-free medium up to 144 hrs by CCK8 assay; format: functional, cell-based
[24] = target: von Hippel-Lindau disease tumor suppressor/Tyrosine-protein kinase ABL2 (Homo sapiens) (UniProt P42684); assay: Protac activity against VHL/BCR-ABL in human K562 cells assessed as reduction in ABL2 protein levels at 100 nM incubated for 16 hrs by multiplexed tandem mass spectrometry

Q: Which results are given for `Cc1nc(Nc2ncc(C(=O)Nc3c(C)cccc3Cl)s2)cc(N2CCN(C(=O)CCCCCCC(=O)N[C@H](C(=O)N3C[C@H](O)C[C@H]3C(=O)NCc3ccc(-c4scnc4C)cc3)C(C)(C)C)CC2)n1`?
A: pIC50 (K562 [1]): 7.62; Activity [2]: Dose-dependent effect; DC50 [2]: 8.5 nM; inhibition [3]: Active; inhibition [4]: Active; inhibition [5]: Active; growth inhibition (GI) (KU812 cell line): Active; growth inhibition (GI) (SUP-B15): Active; growth inhibition (GI) (U-937): inactive; growth inhibition (GI) (HEK293): Non-Toxic; Activity [6]: inactive; Activity [7]: inactive; Activity [8]: inactive; Activity [9]: Dose-dependent effect; Activity [10]: Active; Activity [11]: inactive; Activity [12]: Active; Activity [13]: Active; Activity (K562 [14]): Non-Toxic; Activity [15]: Dose-dependent effect; Activity [16]: Dose-dependent effect; Activity [17]: Non-Toxic; Activity [18]: Dose-dependent effect; Activity [19]: Dose-dependent effect; Activity [20]: inactive; Activity [21]: inactive; growth inhibition (GI) (K562 [22]): Active; Activity (K562 [23]): Active; Activity [24]: Active
